The text below walks through data of ChEMBL document CHEMBL3351745, “Synthesis and in vitro evaluation of radioiodinated indolequinones targeting NAD(P)H: quinone oxidoreductase 1 for internal radiation therapy” (Bioorg Med Chem, 2014).

A value given as a limit tells only on which side of the number the result lay.

The target of series [1] is NAD(P)H dehydrogenase [quinone] 1 (Homo sapiens, UniProt P15559). Description: Activity of NOQ-1 expressed in human HT-29 cell lysate assessed as p-[125I]-iodophenol formation at 185 KBq after 2 hrs by reversed phase TLC analysis. Type of series: ADME, cell-free. Particulars: ht-29, 2 h; call rule not given here.
NAD(P)H dehydrogenase [quinone] 1, sequence (P15559 whole entry): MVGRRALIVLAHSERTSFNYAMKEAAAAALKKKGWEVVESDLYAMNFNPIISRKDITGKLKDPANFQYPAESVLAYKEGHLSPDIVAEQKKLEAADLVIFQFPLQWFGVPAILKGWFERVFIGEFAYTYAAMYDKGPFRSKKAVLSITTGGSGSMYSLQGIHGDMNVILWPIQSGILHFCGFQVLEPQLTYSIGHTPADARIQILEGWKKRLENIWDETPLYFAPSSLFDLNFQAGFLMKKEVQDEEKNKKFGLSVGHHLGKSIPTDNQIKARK
Series [2] has as its system A549. Description: Drug metabolism in human A549 cells assessed as [125I]-I formation at 18.5 kBq after 60 mins by reversed phase TLC analysis. Format: ADME, cell-based. Particulars: a549, 1 h.
For series [3], the system named is A549. The series is described as follows: Drug metabolism in human A549 cells assessed as p-[125I]-iodophenol formation at 18.5 kBq after 60 mins by reversed phase TLC analysis. Particulars: a549, 1 h. Format: ADME, cell-based.
Series [4] deals with A549. Description: Cellular uptake in human A549 cells at 18.5 kBq after 1 to 120 mins by gamma-counting analysis. Type of series: ADME, cell-based.
The test system of series [5] is HT-29. Description: Cellular uptake in human HT-29 cells at 18.5 kBq after 2 hrs by gamma-counting analysis. To be noted: ht-29, 2 h. Type of series: ADME, cell-based.
The nature of series [6]: Stability of the compound in PBS assessed as compound remaining at 74 KBq at pH 7.4 after 24 hrs by reversed phase TLC analysis. Format: physicochemical. Particulars: read-out: Stability.
Series [7] relates to HT-29. Description: Drug metabolism in human HT-29 cells assessed as [125I]-I formation at 18.5 kBq after 60 mins by reversed phase TLC analysis. Type of series: ADME, cell-based. Particulars: ht-29, 1 h.
Series [8] relates to HT-29. Description: Cellular uptake in human HT-29 cells at 18.5 kBq up to 5 mins by gamma-counting analysis. To be noted: ht-29, 5 min. Type of series: ADME, cell-based.
Series [9] in a line: Stability of the compound in cell culture media. Format: physicochemical.
The target of series [10] is NAD(P)H dehydrogenase [quinone] 1 (printed NOQ-1) (Homo sapiens, UniProt P15559). Description: Activity of NOQ-1 expressed in human HT-29 cell lysate assessed as compound remaining at 185 KBq after 2 hrs by reversed phase TLC analysis. Format: ADME, cell-free. To be noted: read-out: Stability.
NAD(P)H dehydrogenase [quinone] 1 (printed NOQ-1), sequence (P15559 whole entry): as above
Series [11] deals with HT-29. Description: Drug metabolism in human HT-29 cells assessed as m-[125I]-iodophenol formation at 18.5 kBq after 60 mins by reversed phase TLC analysis. Format: ADME, cell-based. To be noted: ht-29, 1 h.
Series [12] relates to HT-29. Description: Drug metabolism in human HT-29 cells assessed as p-[125I]-iodophenol formation at 18.5 kBq after 60 mins by reversed phase TLC analysis. Format: ADME, cell-based. To be noted: ht-29, 1 h.
A short description of series [13]: Stability in mouse plasma assessed as compound remaining at 74 KBq after 24 hrs by reversed phase TLC analysis. Format: ADME, cell-free. Particulars: read-out: Stability.
The nature of series [14]: Drug metabolism in human HT-29 cells assessed as compound remaining at 18.5 kBq after 60 mins by reversed phase TLC analysis. Type of series: ADME, cell-based. Particulars: read-out: Stability.
Series [15] in a line: Drug metabolism in human A549 cells assessed as compound remaining at 18.5 kBq after 60 mins by reversed phase TLC analysis. Type of series: ADME, cell-based. Particulars: read-out: Stability.
The nature of series [16]: Ratio of cellular uptake in human A549 cells to cellular uptake in human HT-29 cells. Type of series: ADME, cell-based.
Series [17] relates to HT-29. Description: Cellular uptake in human HT-29 cells at 18.5 kBq after 30 mins by gamma-counting analysis in presence of 3-([{4-Iodophenyl}thio]methyl)-5-methoxy-1,2-dimethyl-1H-indole-4,7-dione. Format: ADME, cell-based. Particulars: ht-29, 0.5 h.
Series [18] has as its system A549. Description: Cellular uptake in human A549 cells at 18.5 kBq after 30 mins by gamma-counting analysis in presence of 3-([{4-Iodophenyl}thio]methyl)-5-methoxy-1,2-dimethyl-1H-indole-4,7-dione. Type of series: ADME, cell-based. To be noted: a549, 0.5 h.
The subject of series [19] is A549. The series is described as follows: Cellular uptake in human A549 cells at 18.5 kBq by gamma-counting analysis. Format: ADME, cell-based.
Series [20] concerns HT-29. Description: Drug level in human HT-29 cells treated with 18.5 kBq [125I]-3-([3-Iodophenoxy]methyl)-5-methoxy-1,2-dimethyl-1Hindole-4,7-dione after 60 mins by reversed phase TLC analysis. Particulars: ht-29, 1 h. Type of series: ADME, cell-based.
Series [21] concerns A549. Description: Drug level in human A549 cells treated with 18.5 kBq [125I]-3-([4-Iodophenoxy]methyl)-5-methoxy-1,2-dimethyl-1Hindole-4,7-dione after 60 mins by reversed phase TLC analysis. To be noted: a549, 1 h. Type of series: ADME, cell-based.
The test system of series [22] is HT-29. Description: Drug level in human HT-29 cells treated with 18.5 kBq [125I]-3-([4-Iodophenoxy]methyl)-5-methoxy-1,2-dimethyl-1Hindole-4,7-dione after 60 mins by reversed phase TLC analysis. Format: ADME, cell-based. Particulars: ht-29, 1 h.

For `COC1=CC(=O)c2c(c(COc3ccc([125I])cc3)c(C)n2C)C1=O`, the Drug metabolism result (in [1]; in the series with A549 [2]; in the series with A549 [3]; with HT-29 [7]; in the series with HT-29 [11]; with HT-29 [12]) was “metabolite_detected” throughout. The Drug uptake entry in the series with A549 [4], with HT-29 [5] and with HT-29 [8] was “Active” each time. Further, the remaining at 24 h, 74 KBq in series [6] is over 90%; in series [13] it was 80%. Moreover, in series [9], the Stability entry is recorded as “Stable”. Also, in [10], the remaining at 2 h, 185 KBq was under 25%. Further, in [14], the remaining at 1 h, 18.5 kBq was under 10%.

Take `COC1=CC(=O)c2c(c(COc3cccc([125I])c3)c(C)n2C)C1=O`: the Drug uptake result with HT-29 [5] and with HT-29 [8] was “Active” throughout. The remaining at 24 h, 74 KBq in series [6] was over 90%; in [13] it was 80%. For the same molecule, the Drug metabolism result with HT-29 [7], in the series on HT-29 [11] and in the series on HT-29 [12] was “metabolite_detected” throughout. In [9], the Stability entry is “Stable”. The remaining at 1 h, 18.5 kBq in [14] was under 10%.

`COC1=CC(=O)c2c(c(CSc3ccc([125I])cc3)c(C)n2C)C1=O`: the remaining at 1 h, 18.5 kBq in series [15] was over 85%. The Ratio in series [16] was determined as 4. The Drug uptake entry is “Active” in the series with HT-29 [5], “Not Active” with HT-29 [17], “Not Active” with A549 [18] and “Dose-dependent effect” in the series on A549 [19]. Also, the values for the remaining at 24 h, 74 KBq in series [6] and in series [13] were over 90% and over 97%, respectively. The Stability entry in series [9] is reported as “Stable”. Moreover, the remaining at 2 h, 185 KBq in [10] is 92%.

For `Oc1ccc([125I])cc1`, the Drug uptake entry with HT-29 [20], in the series on A549 [21] and with HT-29 [22] was “Active” throughout.

For the molecule `Oc1cccc([125I])c1`, the Drug uptake result with HT-29 [20] and with HT-29 [22] was “Active” throughout.

Turning to `[125IH]`, the Drug uptake entry with HT-29 [20], in the series with A549 [21] and with HT-29 [22] was “Active” throughout.
